This is an account of results in paper PMC8287944, “5-Fluorouracil blocks quorum-sensing of biofilm-embedded methicillin-resistant Staphylococcus aureus in mice” (Nucleic Acids Research, 2021).

Read-outs that look alike come from different tables or passages of the source. Bridge positions count the residues as written; N and C are the ends. Square brackets hold non-standard residues; d marks the D form. Peptide text beside a SMILES is read from it. I, II: the chains in the order shown. * marks the point of attachment. Quinoxaline2carbonyl = O=C(c1cnc2ccccc2n1)*; NMeV = CN[CH](C(=O)O)C(C)C; NMeC = CN[CH](CS)C(=O)O

For series [1], the system named is AI-2 production by HEK-293AI2 cells expressing MTAN and LuxS. The series is described as follows: HEK-293AI2 / V. harveyi (MM32) AI-2 detection platform (AI-2 production by engineered human cells). Type of series: cell-based, human cells; MTAN and LuxS derived from E. coli. Particulars: for IC50: HEK-293AI2 cells exposed 24 h, AI-2 in supernatant read by V. harveyi MM32 bioluminescence. Here is the method: LuxS (MF688636) and MTAN (MF688635) transgenes derived from E. coli were codon-optimized for stable expression in mammalian cells. For the generation of double stable HEK-293-derived cell line HEK-293AI2 transgenic for simultaneous constitutive PhEFIα-driven MTAN and PhCMV-driven LuxS-eYFP expression, 250,000 cells were first transfected with 2000 ng of pFS168 (PhEFIα-MTAN-pA) and selected in culture medium containing 20 μg/ml blasticidin (cat. no. ant-bl-1; InvivoGen, San Diego, CA, USA) for two weeks. […] After 17 days of selection in medium containing 200 μg/ml (w/v) zeocin (cat. no. ant-zn-1; Invivogen, San Diego, CA, USA) and 20 μg/ml blasticidin, resistant monoclonal cells (HEK-293sFS26cx) were obtained by limiting dilution cloning and screened for AI-2 activity in their supernatants. […] The cell line was regularly tested for the absence of mycoplasma.
20 μl of HEK-293AI2 cells (10^4 cells per well) were resuspended in 20 μl Dulbecco's modified Eagle's medium (DMEM; Thermo Fisher, Basel, Switzerland, low glucose, without phenol red, cat. no. 11880–028) supplemented with 4 mM L-glutamine (Thermo Fisher, Basel, Switzerland, cat. no. 25030-024), 30 μg/ml kanamycin and 1% FCS and seeded into a poly-L-lysine-coated Black Greiner clear-bottom 384-well plate (cat. no. 3845; Corning, New York, USA) using a Multidrop Combi Reagent Dispenser (cat. no. 5840300; Thermo Fisher, Basel, Switzerland). Cells were incubated for 20 h and then 20 nL of individual compounds (stock solution in 5 mM in DMSO) or controls (stock solutions of novobiocin, 10 mM in DMSO; staurosporin, 20 mM in DMSO) were transferred with Echo 550 liquid handler (Labcyte, San Jose, CA, USA) into the plate.
Compound-treated cells were cultivated for 24 hours and the cell culture supernatants (10 μl) were transferred to dry black polystyrene 384-well plates (Corning, New York, USA, cat. no. 3571). The AI-2 activity was quantified by adding 40 μl per 384-well of V. harveyi MM32 AI-2 reporter strain, diluted 1:500 in AB-Medium from a stationary overnight culture grown in Luria Marine (LM)-medium containing 20 g of NaCl, 10 g of Bacto Tryptone (Difco Laboratories), and 5 g of yeast extract (BBL) ([25]). Plates were sealed with BREATHseal™ (cat. no. 7.676 050; Greiner Bio-One, Frickenhausen, Germany) and incubated for 4 h at 30°C and 200 rpm on a Multitron Pro shaker (Infors, Bottmingen, Switzerland). Bioluminescence was measured on an Envision 2104 Multilabel plate reader (Perkin Elmer, Waltham, USA) with 1 s integration time. […] The initial hit inclusion criteria were a toxicity score of less than 50% and an AI-2 activity reduction below the average of all compound activity three times the standard deviation (-49.39% of activity).
(§1) Figure 2. Cell-based primary screen for AI-2 biosynthesis inhibitors. (A) Detailed assay protocol of the primary screen using engineered mammalian cells to identify inhibitors of quorum sensing. […] Aliquots of 10 μl of culture supernatants were transferred to black-bottomed assay plates and mixed with 40 μl of V. harveyi MM32 (AI-2 biosensor). AI-2-induced bioluminescence was measured 4 h later and normalized against the controls. In a secondary screen, the dose-response relationships of hit compounds are analyzed. To simultaneously assess effects on cell viability, compound-treated cells were supplemented with PrestoBlue and incubated for 1 h prior to resorufin fluorescence quantification. (B) Z’-evaluation of the AI-2 inhibitor assay.

The subject of the next series is HEK-293AI2 cells. Type of series: cell-based, human. The procedure: To monitor viable cells with active metabolism, we employed a fast resazurin assay. […] To calculate the relative cell viability, the fluorescence of DMSO-treated cells was set to 100%.
as §1, with “assay. […] Bioactivity and viability are calculated as percentages, based on the positive control value (taken as 100%) and negative control value (taken as 0%). […] Data points in (C) represent means of biological duplicates.” for “assay.”

The target of another series is MTAN. Particulars: cited from earlier work; for Ki: read-out: Ki (reported, in vitro).
The next series deals with V. harveyi (BB170). The series is described as follows: V. harveyi BB170 growth (OD600 after 24 h). Conditions: V. harveyi BB170, OD600 after 24 h. It is filed as cell-based, Vibrio harveyi. Details: TC50 (decrease of V. harveyi growth): unit not given beside the values. The procedure:
The test strain V. harveyi BB170 was grown overnight in Luria Marine (LM)-medium ([25]). The culture was 1:500 diluted in AB-medium (0.3 M NaCl, 10 mM potassium phosphate, 1 mM L-arginine, […], 1% glycerol) the next day, and then challenged with various chemical compounds. After 5 h of shaking at 200 rpm at 30°C, the bioluminescence of BB170 was quantified on a GENios Pro plate reader (Tecan, Männedorf, Switzerland).
Figure 3. Bioactivity of hit candidates against Vibrio harveyi. Effect on bacterial growth. V. harveyi (BB170) was grown in the presence of individual compounds (A–H) for 5 h and the bioluminescence (green circles) was quantified. After a total of 24 h, bacterial growth (+) was evaluated by measuring the optical density (OD600). The gray translucent background in (C) represents the narrow range within which the compound reduces bioluminescence without affecting growth.

`C/C=C\C=C\[C@@H]1O[C@](O)([C@H](CC)C(=O)NC/C=C/C=C(\C)[C@@H](OC)[C@H](C)[C@@H]2O[C@H](/C=C/C=C/C=C(\C)C(=O)c3c(O)cc[nH]c3=O)[C@H](O)[C@@H]2O)[C@H](O)[C@H](O)C1(C)C` [Mocimycin] had an IC50 in series [1] of 1370 nM. In series [1] (Homo sapiens, 24 h), `CCCCC[C@H](CC(=O)NO)C(=O)N[C@H](C(=O)N1CCC[C@H]1CO)C(C)C` [Actinonin] returned an IC50 of 1000 nM. Further, in the series with HEK-293AI2 cells (human, 5 µM), the “Viability of Ctrl (%)” value is “–11.93%”. As to `C[C@H]1O[C@@H](n2cc(F)c(=O)[nH]c2=O)[C@H](O)[C@@H]1O` [Doxifluridine], in series [1] (Homo sapiens, 24 h), the IC50 turned out to be 240 nM. Further, in the series on HEK-293AI2 cells (human, 5 µM), the “Viability of Ctrl (%)” value is “–0.0725%”. As for `CCCC[C@H](CN(O)C=O)C(=O)N1CCC[C@H]1C(=O)Nc1cc(CC)ccn1` [SCHEMBL14510040], the IC50 in series [1] is 1090 nM. For the molecule `COc1cc(C)c(Cc2cnc(N)nc2N)cc1OC` [Ormetoprim], the IC50 in series [1] (Homo sapiens, 24 h) amounted to 3660 nM. `O=CN(O)C[C@@H](CC1CCCC1)C(=O)N1C[C@H](F)C[C@H]1C(=O)Nc1cccnn1` [SCHEMBL12230409]: 640 nM corresponded to half-maximal inhibition in series [1] (IC50). With `CC(=O)NC[C@H]1CN(c2ccc(N3CCOCC3)c(F)c2)C(=O)O1` [Linezolid], in series [1] (Homo sapiens, 24 h), the IC50 was 4160 nM. In addition, in the series with HEK-293AI2 cells (human, 5 µM), the “Viability of Ctrl (%)” value is 0.38%. `CNC1=NC(=O)[C@H]([C@@H](C)c2c[nH]c3ccccc23)O1` [CHEMBL283366]: the IC50 in series [1] is 180 nM.

As for `CO/N=C(\C(=O)N[C@@H]1C(=O)N2C(C(=O)O)=C(CSc3nc(=O)c(=O)[nH]n3C)CS[C@H]12)c1csc(N)n1` [Ceftriaxone], the IC50 in series [1] (Homo sapiens, 24 h) is 3490 nM. Moreover, in the series on HEK-293AI2 cells (human, 5 µM), the “Viability of Ctrl (%)” value is given as “–4.78%”. Erythromycin: the IC50 in series [1] amounted to 1930 nM. Take `Nc1ncnc2c([C@@H]3O[C@H](CO)[C@@H](O)[C@H]3O)[nH]nc12` [Formycin]: the IC50 in series [1] (Homo sapiens, 24 h) is 2110 nM; in the series with MTAN (competitive MTAN inhibition, read-out: Reported IC50 (in vitro)), 57000 nM. Moreover, the Ki at MTAN (competitive MTAN inhibition) is 10000 nM. As to `Nc1nc(Cl)nc2c1ncn2[C@@H]1O[C@H](CO)[C@@H](O)[C@@H]1F` [Clofarabine], half-maximal inhibition in series [1] (Homo sapiens, 24 h) (IC50) was put at 160 nM. Further, in the series on V. harveyi (BB170), the “TC50 (decrease of V. harveyi growth)” value is on record as 4.4 × 10^−7. Besides, the “Viability of Ctrl (%)” value in the series with HEK-293AI2 cells (human, 5 µM) amounted to 15.42%. The molecule `O=CN(O)C[C@@H](CC1CCC1)C(=O)N1C[C@H](F)C[C@H]1C(=O)Nc1cccnn1` [SCHEMBL12230407] yielded an IC50 in series [1] of 630 nM.

In series [1] (Homo sapiens, 24 h), `NC(=O)c1ncn([C@@H]2O[C@H](CO)[C@@H](O)[C@H]2O)n1` [Ribavirin] came in with an IC50 of 190 nM. As for `CC[C@H]1OC(=O)[C@H](C)[C@@H](O[C@H]2C[C@@](C)(OC)[C@@H](O)[C@H](C)O2)[C@H](C)[C@@H](O[C@@H]2O[C@H](C)C[C@H](N(C)C)[C@H]2O)[C@](C)(O)C[C@@H](C)C(=O)[C@H](C)[C@@H](O)[C@H]1C` [Erythromycin B], half-maximal inhibition in series [1] (IC50) was put at 1420 nM. The “Viability of Ctrl (%)” value in the series on HEK-293AI2 cells is listed as 4.99%. As for `CO[C@H]1/C=C/O[C@@]2(C)Oc3c(C)c(O)c4c(O)c(c(/C=N/N5CCN(C6CCCC6)CC5)c(O)c4c3C2=O)NC(=O)/C(C)=C\C=C\[C@H](C)[C@H](O)[C@@H](C)[C@@H](O)[C@@H](C)[C@H](OC(C)=O)[C@@H]1C` [Rifapentine], inhibition in series [1] (Homo sapiens, 24 h) was half-maximal at 2530 nM (IC50). In addition, the “Viability of Ctrl (%)” value with HEK-293AI2 cells (human, 5 µM) is on record as “–0.98%”. The molecule `O=CN(O)C[C@@H](CC1CCCC1)C(=O)N1C[C@H](F)C[C@H]1C(=O)Nc1cnccn1` [SCHEMBL12230405] yielded an IC50 in series [1] of 150 nM. Still for that read-out and setting: in the case of Levomycin it was 370 nM; in that of `CC[C@H]1OC(=O)[C@H](C)[C@@H](O[C@H]2C[C@@](C)(OC)[C@@H](O)[C@H](C)O2)[C@H](C)[C@@H](O[C@@H]2O[C@H](C)C[C@H](N(C)C)[C@H]2O)[C@](C)(O)C[C@@H](C)C(=O)[C@H](C)[C@@H](O)[C@]1(C)O.O=C(O)[C@H](O)[C@H](O)[C@@H](O)[C@H](O)[C@H](O)CO` [Erythrohycin Gluceptate], 1310 nM. Consider `CC1NC(=O)C(NC(=O)c2cnc3ccccc3n2)COC(=O)C(C(C)C)N(C)C(=O)C2CSSCC(C(=O)N(C)C(C(C)C)C(=O)OCC(NC(=O)c3cnc4ccccc4n3)C(=O)NC(C)C(=O)N2C)N(C)C1=O` (centres unmarked) [Triostin A] (I: Quinoxaline2carbonyl-SA[NMeC][NMeV] / II: Quinoxaline2carbonyl-SA[NMeC][NMeV]; ester I:1-II:C, I:C-II:1; disulfide I:3-II:3; configuration not given here), for which half-maximal inhibition in series [1] (IC50) was put at 2140 nM. In the case of `C[C@@H]1C/C=C2\SC[C@@H](NC(=O)c3coc(n3)C[C@H](O)C[C@H](O)/C=C/C=C/CNC2=O)C(=O)O1` [Griseoviridin], the IC50 in series [1] amounted to 4550 nM. As for `CO[C@@H]1[C@@H](OC(N)=O)[C@@H](O)[C@H](Oc2ccc3c(O)c(NC(=O)c4ccc(O)c(CC=C(C)C)c4)c(=O)oc3c2C)OC1(C)C` [novobiocin], the “Bioluminescence of V. harveyi (MM32)” value in series [1] (assay validation, active control novobiocin 10 μM) is “completely shut down the bioluminescence”. `CSC[C@H]1CN(Cc2c[nH]c3c(N)ncnc23)C[C@@H]1O` [MT-DADMe-ImmA] registered an IC50 in series [1] of 170 nM. Moreover, the Ki at MTAN (MTAN inhibition) is 0.002 nM. `O=c1[nH]c(=O)n([C@H]2C[C@H](O)[C@@H](CO)O2)cc1F` [Floxuridine] had a half-maximal inhibitory concentration (IC50) in series [1] (Homo sapiens, 24 h) of 770 nM. Besides, the “Viability of Ctrl (%)” value with HEK-293AI2 cells (human, 5 µM) is given as “–22.28%”. Consider `CO[C@H]1/C=C/O[C@@]2(C)Oc3c(C)c(O)c4c(c3C2=O)C2=NC3(CCN(CC(C)C)CC3)NC2=C(NC(=O)/C(C)=C\C=C\[C@H](C)[C@H](O)[C@@H](C)[C@@H](O)[C@@H](C)[C@H](OC(C)=O)[C@@H]1C)C4=O` [Rifabutin], for which the IC50 in series [1] (Homo sapiens, 24 h) was found to be 2190 nM. The “Viability of Ctrl (%)” value with HEK-293AI2 cells (human, 5 µM) was “–5.07%”.
